Source: ChEMBL document CHEMBL1795303, “Synthesis and evaluation of benzofuran-2-yl(phenyl)methanone derivatives as ligands for β-amyloid plaques” (Bioorg Med Chem, 2011)
Each block holds one compound with its values, some of them ahead of it. Active and inactive are the calls of the source. No cut-off for these calls is given here.

How the values were obtained:
Blood [1] = assay: Biodistribution in ddY mouse blood at 0.9 uCi, iv after 2 mins by gamma counting; assay type: ADME, organism-based; settings: in vivo
Brain [2] = assay: Biodistribution in ddY mouse brain at 0.9 uCi, iv after 2 mins by gamma counting; assay type: ADME, organism-based; settings: in vivo
Heart [3] = assay: Biodistribution in ddY mouse heart at 0.9 uCi, iv after 2 mins by gamma counting; assay type: ADME, organism-based; settings: in vivo
Liver [4] = assay: Biodistribution in ddY mouse liver at 0.9 uCi, iv after 2 mins by gamma counting; assay type: ADME, organism-based; settings: in vivo
Spleen [5] = assay: Biodistribution in ddY mouse spleen at 0.9 uCi, iv after 2 mins by gamma counting; assay type: ADME, organism-based; settings: in vivo
Lung [6] = assay: Biodistribution in ddY mouse lung at 0.9 uCi, iv after 2 mins by gamma counting; assay type: ADME, organism-based; settings: in vivo
Kidney [7] = assay: Biodistribution in ddY mouse kidney at 0.9 uCi, iv after 2 mins by gamma counting; assay type: ADME, organism-based; settings: in vivo
Stomach [8] = assay: Biodistribution in ddY mouse stomach assessed per organ at 0.9 uCi, iv after 2 mins by gamma counting; assay type: ADME, organism-based; settings: in vivo
Intestine [9] = assay: Biodistribution in ddY mouse intestine at 0.9 uCi, iv after 2 mins by gamma counting; assay type: ADME, organism-based; settings: in vivo
Mus musculus [10] = assay: Biodistribution in ddY mouse thyroid assessed per organ at 0.9 uCi, iv after 2 mins by gamma counting; assay type: ADME, organism-based, Thyroid gland; settings: in vivo
Blood [11] = assay: Biodistribution in ddY mouse blood at 0.9 uCi, iv after 15 mins by gamma counting; assay type: ADME, organism-based; settings: in vivo, 0.25 h
Brain [12] = assay: Biodistribution in ddY mouse brain at 0.9 uCi, iv after 15 mins by gamma counting; assay type: ADME, organism-based; settings: in vivo, 0.25 h
Heart [13] = assay: Biodistribution in ddY mouse heart at 0.9 uCi, iv after 15 mins by gamma counting; assay type: ADME, organism-based; settings: in vivo, 0.25 h
Liver [14] = assay: Biodistribution in ddY mouse liver at 0.9 uCi, iv after 15 mins by gamma counting; assay type: ADME, organism-based; settings: in vivo, 0.25 h
Spleen [15] = assay: Biodistribution in ddY mouse spleen at 0.9 uCi, iv after 15 mins by gamma counting; assay type: ADME, organism-based; settings: in vivo, 0.25 h
Lung [16] = assay: Biodistribution in ddY mouse lung at 0.9 uCi, iv after 15 mins by gamma counting; assay type: ADME, organism-based; settings: in vivo, 0.25 h
Kidney [17] = assay: Biodistribution in ddY mouse kidney at 0.9 uCi, iv after 15 mins by gamma counting; assay type: ADME, organism-based; settings: in vivo, 0.25 h
Stomach [18] = assay: Biodistribution in ddY mouse stomach assessed per organ at 0.9 uCi, iv after 15 mins by gamma counting; assay type: ADME, organism-based; settings: in vivo, 0.25 h
Intestine [19] = assay: Biodistribution in ddY mouse intestine at 0.9 uCi, iv after 15 mins by gamma counting; assay type: ADME, organism-based; settings: in vivo, 0.25 h
Mus musculus [20] = assay: Biodistribution in ddY mouse thyroid assessed per organ at 0.9 uCi, iv after 15 mins by gamma counting; assay type: ADME, organism-based, Thyroid gland; settings: in vivo, 0.25 h
Blood [21] = assay: Biodistribution in ddY mouse blood at 0.9 uCi, iv after 30 mins by gamma counting; assay type: ADME, organism-based; settings: in vivo, 0.5 h
Brain [22] = assay: Biodistribution in ddY mouse brain at 0.9 uCi, iv after 30 mins by gamma counting; assay type: ADME, organism-based; settings: in vivo, 0.5 h
Heart [23] = assay: Biodistribution in ddY mouse heart at 0.9 uCi, iv after 30 mins by gamma counting; assay type: ADME, organism-based; settings: in vivo, 0.5 h
Liver [24] = assay: Biodistribution in ddY mouse liver at 0.9 uCi, iv after 30 mins by gamma counting; assay type: ADME, organism-based; settings: in vivo, 0.5 h
Spleen [25] = assay: Biodistribution in ddY mouse spleen at 0.9 uCi, iv after 30 mins by gamma counting; assay type: ADME, organism-based; settings: in vivo, 0.5 h
Lung [26] = assay: Biodistribution in ddY mouse lung at 0.9 uCi, iv after 30 mins by gamma counting; assay type: ADME, organism-based; settings: in vivo, 0.5 h
Kidney [27] = assay: Biodistribution in ddY mouse kidney at 0.9 uCi, iv after 30 mins by gamma counting; assay type: ADME, organism-based; settings: in vivo, 0.5 h
Stomach [28] = assay: Biodistribution in ddY mouse stomach assessed per organ at 0.9 uCi, iv after 30 mins by gamma counting; assay type: ADME, organism-based; settings: in vivo, 0.5 h
Intestine [29] = assay: Biodistribution in ddY mouse intestine at 0.9 uCi, iv after 30 mins by gamma counting; assay type: ADME, organism-based; settings: in vivo, 0.5 h
Mus musculus [30] = assay: Biodistribution in ddY mouse thyroid assessed per organ at 0.9 uCi, iv after 30 mins by gamma counting; assay type: ADME, organism-based, Thyroid gland; settings: in vivo, 0.5 h
Blood [31] = assay: Biodistribution in ddY mouse blood at 0.9 uCi, iv after 60 mins by gamma counting; assay type: ADME, organism-based; settings: in vivo, 1 h
Brain [32] = assay: Biodistribution in ddY mouse brain at 0.9 uCi, iv after 60 mins by gamma counting; assay type: ADME, organism-based; settings: in vivo, 1 h
Heart [33] = assay: Biodistribution in ddY mouse heart at 0.9 uCi, iv after 60 mins by gamma counting; assay type: ADME, organism-based; settings: in vivo, 1 h
Liver [34] = assay: Biodistribution in ddY mouse liver at 0.9 uCi, iv after 60 mins by gamma counting; assay type: ADME, organism-based; settings: in vivo, 1 h
Spleen [35] = assay: Biodistribution in ddY mouse spleen at 0.9 uCi, iv after 60 mins by gamma counting; assay type: ADME, organism-based; settings: in vivo, 1 h
Lung [36] = assay: Biodistribution in ddY mouse lung at 0.9 uCi, iv after 60 mins by gamma counting; assay type: ADME, organism-based; settings: in vivo, 1 h
Kidney [37] = assay: Biodistribution in ddY mouse kidney at 0.9 uCi, iv after 60 mins by gamma counting; assay type: ADME, organism-based; settings: in vivo, 1 h
Stomach [38] = assay: Biodistribution in ddY mouse stomach assessed per organ at 0.9 uCi, iv after 60 mins by gamma counting; assay type: ADME, organism-based; settings: in vivo, 1 h
Intestine [39] = assay: Biodistribution in ddY mouse intestine at 0.9 uCi, iv after 60 mins by gamma counting; assay type: ADME, organism-based; settings: in vivo, 1 h
Mus musculus [40] = assay: Biodistribution in ddY mouse thyroid assessed per organ at 0.9 uCi, iv after 60 mins by gamma counting; assay type: ADME, organism-based, Thyroid gland; settings: in vivo, 1 h
Blood [41] = assay: Biodistribution in ddY mouse blood at 0.9 uCi, iv after 120 mins by gamma counting; assay type: ADME, organism-based; settings: in vivo, 2 h
Brain [42] = assay: Biodistribution in ddY mouse brain at 0.9 uCi, iv after 120 mins by gamma counting; assay type: ADME, organism-based; settings: in vivo, 2 h
Heart [43] = assay: Biodistribution in ddY mouse heart at 0.9 uCi, iv after 120 mins by gamma counting; assay type: ADME, organism-based; settings: in vivo, 2 h
Liver [44] = assay: Biodistribution in ddY mouse liver at 0.9 uCi, iv after 120 mins by gamma counting; assay type: ADME, organism-based; settings: in vivo, 2 h
Spleen [45] = assay: Biodistribution in ddY mouse spleen at 0.9 uCi, iv after 120 mins by gamma counting; assay type: ADME, organism-based; settings: in vivo, 2 h
Lung [46] = assay: Biodistribution in ddY mouse lung at 0.9 uCi, iv after 120 mins by gamma counting; assay type: ADME, organism-based; settings: in vivo, 2 h
Kidney [47] = assay: Biodistribution in ddY mouse kidney at 0.9 uCi, iv after 120 mins by gamma counting; assay type: ADME, organism-based; settings: in vivo, 2 h
Stomach [48] = assay: Biodistribution in ddY mouse stomach assessed per organ at 0.9 uCi, iv after 120 mins by gamma counting; assay type: ADME, organism-based; settings: in vivo, 2 h
Intestine [49] = assay: Biodistribution in ddY mouse intestine at 0.9 uCi, iv after 120 mins by gamma counting; assay type: ADME, organism-based; settings: in vivo, 2 h
Mus musculus [50] = assay: Biodistribution in ddY mouse thyroid assessed per organ at 0.9 uCi, iv after 120 mins by gamma counting; assay type: ADME, organism-based, Thyroid gland; settings: in vivo, 2 h
Brain [51] = assay: Ratio of drug level in brain after 2 mins to drug level in brain after 30 mins ddY mouse at 0.9 uCi, iv; assay type: ADME, organism-based; settings: in vivo
[52] = Lipophilicity, log D of the compound; assay type: physicochemical; settings: octanol/water
[53] = Displacement of [125I]-IMPY from amyloid beta (1 to 42) after 2 hrs by gamma counting
Mus musculus [54] = organism: Mus musculus; assay: Binding affinity to beta-amyloid in APP/PS1 transgenic C57 mouse brain at 5 uCi/[…] after 1 hr by autoradiography; assay type: tissue-based; settings: tested as the 125I-labelled form

Drug uptake (Blood [1]): 2.56 % ID/g
Drug uptake (Brain [2]): 3.53 % ID/g
Drug uptake (Heart [3]): 7.01 % ID/g
Drug uptake (Liver [4]): 16.19 % ID/g
Drug uptake (Spleen [5]): 2.75 % ID/g
Drug uptake (Lung [6]): 7.34 % ID/g
Drug uptake (Kidney [7]): 10.26 % ID/g
Drug uptake (Stomach [8]): 0.95 %ID
Drug uptake (Intestine [9]): 3.14 % ID/g
Drug uptake (Mus musculus [10]): 0.02 %ID
Drug uptake (Blood [11]): 1.16 % ID/g
Drug uptake (Brain [12]): 2.38 % ID/g
Drug uptake (Heart [13]): 1.45 % ID/g
Drug uptake (Liver [14]): 11 % ID/g
Drug uptake (Spleen [15]): 1.59 % ID/g
Drug uptake (Lung [16]): 2.2 % ID/g
Drug uptake (Kidney [17]): 3.84 % ID/g
Drug uptake (Stomach [18]): 1.54 %ID
Drug uptake (Intestine [19]): 11.77 % ID/g
Drug uptake (Mus musculus [20]): 0.05 %ID
Drug uptake (Blood [21]): 1.07 % ID/g
Drug uptake (Brain [22]): 1.51 % ID/g
Drug uptake (Heart [23]): 1.15 % ID/g
Drug uptake (Liver [24]): 6.7 % ID/g
Drug uptake (Spleen [25]): 0.94 % ID/g
Drug uptake (Lung [26]): 1.61 % ID/g
Drug uptake (Kidney [27]): 4.28 % ID/g
Drug uptake (Stomach [28]): 2.6 %ID
Drug uptake (Intestine [29]): 21.81 % ID/g
Drug uptake (Mus musculus [30]): 0.18 %ID
Drug uptake (Blood [31]): 0.82 % ID/g
Drug uptake (Brain [32]): 0.87 % ID/g
Drug uptake (Heart [33]): 0.74 % ID/g
Drug uptake (Liver [34]): 5.09 % ID/g
Drug uptake (Spleen [35]): 0.66 % ID/g
Drug uptake (Lung [36]): 0.94 % ID/g
Drug uptake (Kidney [37]): 1.9 % ID/g
Drug uptake (Stomach [38]): 3.1 %ID
Drug uptake (Intestine [39]): 20.88 % ID/g
Drug uptake (Mus musculus [40]): 0.46 %ID
Drug uptake (Blood [41]): 0.63 % ID/g
Drug uptake (Brain [42]): 0.41 % ID/g
Drug uptake (Heart [43]): 0.49 % ID/g
Drug uptake (Liver [44]): 3.59 % ID/g
Drug uptake (Spleen [45]): 0.43 % ID/g
Drug uptake (Lung [46]): 0.79 % ID/g
Drug uptake (Kidney [47]): 1.64 % ID/g
Drug uptake (Stomach [48]): 3.76 %ID
Drug uptake (Intestine [49]): 25.19 % ID/g
Drug uptake (Mus musculus [50]): 0.8 %ID
Ratio (Brain [51]): 2.34
logD [52]: 4.4
SMILES: CN(C)c1ccc(C(=O)c2cc3cc([125I])ccc3o2)cc1

Ki [53]: 6.6 nM
Activity (Mus musculus [54]): Active
SMILES: CN(C)c1ccc(C(=O)c2cc3cc(I)ccc3o2)cc1

Ki [53]: 8.8 nM
SMILES: CN(C)c1ccc(C(=O)c2cc3cc(Br)ccc3o2)cc1

Ki [53]: > 1000 nM
SMILES: O=C(c1ccc([N+](=O)[O-])cc1)c1cc2cc(Br)ccc2o1

Ki [53]: 157 nM
SMILES: Nc1ccc(C(=O)c2cc3cc(Br)ccc3o2)cc1

Ki [53]: 133 nM
SMILES: Nc1ccc(C(=O)c2cc3cc(I)ccc3o2)cc1

Ki [53]: 44.9 nM
SMILES: CNc1ccc(C(=O)c2cc3cc(Br)ccc3o2)cc1

Ki [53]: 34.5 nM
Activity (Mus musculus [54]): Active
SMILES: CNc1ccc(C(=O)c2cc3cc(I)ccc3o2)cc1

Ki [53]: > 1000 nM
SMILES: O=C(c1ccc([N+](=O)[O-])cc1)c1cc2cc(I)ccc2o1
